According to patent US20150119363A1, “METHODS OF TREATING BACTERIAL INFECTIONS” (Rampex Pharmaceuticals, Inc., priority 2012, published 2015):

Key:
Experiment in all cases: Dose titration biapenem potentiation assay (MPC1)
Settings in all cases: biapenem 1 μg/mL
[1] = test system: KP1004 KPC-2; assay type: cell-based, Klebsiella pneumoniae
Description: (§1) The potency and spectrum of β-lactamase inhibitors is also determined by assessing their biapenem potentiation activity in a dose titration potentiation assay using strains expressing serine carbapemenases (such as KPC). The potentiation effect is observed as the ability of BLI compounds to inhibit growth in the presence of sub-inhibitory concentration of biapenem. […] Biapenem is present in the test medium at 1 μg/mL. Compounds tested at the highest concentration of 40 μg/mL. […] Table 5 summarizes BLI potency of biapenem potentiation (MPC1). Biapenem MIC for each strain is also shown.

[2] = test system: KP1008 KPC-2; assay type: cell-based, Klebsiella pneumoniae
Description: as §1

[3] = test system: EC1007 KPC-3; assay type: cell-based, Escherichia coli
Description: as §1

[4] = test system: ECL1004 NMC-A; assay type: cell-based, Enterobacter cloacae
Description: as §1

| Compound | BPM MPC1 KP1004 KPC-2 [1] | BPM MPC1 KP1008 KPC-2 [2] | BPM MPC1 EC1007 KPC-3 [3] | BPM MPC1 ECL1004 NMC-A [4] |
| --- | --- | --- | --- | --- |
| O=C(O)C[C@@H]1CC[C@H](NC(=O)Cc2cccnc2)B(O)O1 [Compound 43, 2-((3R,6S)-2-hydroxy-3-(2-(pyridin-3-yl)acetamido)-1,2-oxaborinan-6-yl)acetic acid] | X (X = MPC1 of less than 1 μg/mL.) | X (X = MPC1 of less than 1 μg/mL.) | X (X = MPC1 of less than 1 μg/mL.) | X (X = MPC1 of less than 1 μg/mL.) |
| N[C@H](CCCN/C(=N/C(=O)OCc1ccccc1)NC(=O)OCc1ccccc1)C(=O)N[C@H]1CC[C@@H](CC(=O)O)OB1O [Compound 44, 2-((3R,6S)-3-((R)-2-amino-5-((Z)-2,3-bis(benzyloxycarbonyl)guanidino)pentanamido)-2-hydroxy-1,2-oxaborinan-6-yl)acetic acid] | X (X = MPC1 of less than 1 μg/mL.) | X (X = MPC1 of less than 1 μg/mL.) | X (X = MPC1 of less than 1 μg/mL.) | Y (Y = MPC1 of 1 μg/mL to 5 μg/mL.) |
| O=C(O)C[C@@H]1CC[C@H](NC(=O)[C@@H]2CCCCN2)B(O)O1 [Compound 45, 2-((3R,6S)-2-hydroxy-3-((S)-piperidine-2-carboxamido)-1,2-oxaborinan-6-yl)acetic acid] | Y (Y = MPC1 of 1 μg/mL to 5 μg/mL.) | X (X = MPC1 of less than 1 μg/mL.) | X (X = MPC1 of less than 1 μg/mL.) | Z (Z = MPC1 of greater than 5 μg/mL.) |
| O=C(O)C[C@@H]1CC[C@H](NC(=O)[C@H]2Cc3ccccc3CN2)B(O)O1 [Compound 46, 2-((3R,6S)-2-hydroxy-3-((R)-1,2,3,4-tetrahydroisoquinoline-3-carboxamido)-1,2-oxaborinan-6-yl)acetic acid] | X (X = MPC1 of less than 1 μg/mL.) | X (X = MPC1 of less than 1 μg/mL.) | X (X = MPC1 of less than 1 μg/mL.) | X (X = MPC1 of less than 1 μg/mL.) |
| N=C(N)NCCC[C@@H](N)C(=O)N[C@H]1CC[C@@H](CC(=O)O)OB1O [Compound 47] | Y (Y = MPC1 of 1 μg/mL to 5 μg/mL.) | X (X = MPC1 of less than 1 μg/mL.) | X (X = MPC1 of less than 1 μg/mL.) | Z (Z = MPC1 of greater than 5 μg/mL.) |
| NCCSCC(=O)N[C@H]1CC[C@@H](CC(=O)O)OB1O [Compound 48, 2-((3R,6S)-3-(2-(2-aminoethylthio)acetamido)-2-hydroxy-1,2-oxaborinan-6-yl)acetic acid] | X (X = MPC1 of less than 1 μg/mL.) | X (X = MPC1 of less than 1 μg/mL.) | X (X = MPC1 of less than 1 μg/mL.) | X (X = MPC1 of less than 1 μg/mL.) |
| O=C(O)C[C@@H]1CC[C@H](NC(=O)Cc2ccncc2)B(O)O1 [Compound 49, 2-((3R,6S)-2-hydroxy-3-(2-(pyridin-4-yl)acetamido)-1,2-oxaborinan-6-yl)acetic acid] | X (X = MPC1 of less than 1 μg/mL.) | X (X = MPC1 of less than 1 μg/mL.) | X (X = MPC1 of less than 1 μg/mL.) | X (X = MPC1 of less than 1 μg/mL.) |
| N[C@H]1CC[C@@H](CC(=O)N[C@H]2CC[C@@H](CC(=O)O)OB2O)CC1 [Compound 50, 2-((3R,6S)-3-(2-(4-aminocyclohexyl)acetamido)-2-hydroxy-1,2-oxaborinan-6-yl)acetic acid] | X (X = MPC1 of less than 1 μg/mL.) | X (X = MPC1 of less than 1 μg/mL.) | X (X = MPC1 of less than 1 μg/mL.) | X (X = MPC1 of less than 1 μg/mL.) |
| O=C(O)C[C@@H]1CC[C@H](NC(=O)c2cn(C3CC3)c3cc(N4CCNCC4)c(F)cc3c2=O)B(O)O1 [Compound 58, 2-((3R,6S)-3-(1-cyclopropyl-6-fluoro-4-oxo-7-(piperazin-1-yl)-1,4-dihydroquinoline-3-carboxamido)-2-hydroxy-1,2-oxaborinan-6-yl)acetic acid] | Z (Z = MPC1 of greater than 5 μg/mL.) | Z (Z = MPC1 of greater than 5 μg/mL.) |  | Z (Z = MPC1 of greater than 5 μg/mL.) |
| Nc1cc(CC(=O)N[C@H]2CC[C@@H](CC(=O)O)OB2O)ccn1 [Compound 61, 2-((3R,6S)-3-(2-(2-aminopyridin-4-yl)acetamido)-2-hydroxy-1,2-oxaborinan-6-yl)acetic acid] | X (X = MPC1 of less than 1 μg/mL.) | X (X = MPC1 of less than 1 μg/mL.) |  | X (X = MPC1 of less than 1 μg/mL.) |
